The structures appear in SMILES notation.

One test relates to IκBα. As to the kind of experiment: TNFα-induced IκBα degradation and phosphorylation (Western blot / kinase assay). The class given is cell-based, human. Here is the method:
(§1) Cells were then washed with 10 mL ice-cold PBS, scraped from the dish, and pelleted by centrifugation at 1000 rpm for 5 m at 4° C. Cell pellets were resuspended in 400 μl of ice-cold buffer A (10 mM HEPES, pH 7.9; 10 mM KCl; 0.1 mM EDTA; 1 mM DTT; 0.5 mM phenylmethysulfonylfluoride [PMSF]; 1 μg/mL leupeptin; 5 μg/mL aprotinin) and allowed to swell on ice for 15 m. Following the addition of 25 μl of 10% NP-40, the suspension was vortexed for 10 s and centrifuged at 14,500 rpm for 1 m at 4° C. Nuclei were resuspended in 50 μl of ice-cold buffer B (20 mM HEPES, pH 7.9; […]; 1 mM EDTA; 1 mM DTT; 1 mM PMSF; 25% glycerol; 1 μg/mL leupeptin; 5 μg/mL aprotinin) and incubated on ice for 15 m. The nuclear suspension was then centrifuged at 14,500 rpm for 5 m at 4° C. and the supernatant containing the nuclear proteins was transferred to a clean tube. Protein concentrations for each sample were determined by the Bradford method (Bio-Rad, Richmond, Calif., USA) and were adjusted to 2 μg/μl by the addition of buffer B.
20 μg of whole U87 cell (or nuclear) lysate was subjected to sodium dodecyl sulfate (SDS)-polyacrylamide gel electrophoresis (PAGE). Following electro-transfer, Immobilon-P membranes (Millipore Corp. Burlington, Mass., USA.) were probed with primary polyclonal antibody against IκBα, phospho-Ser32-IκBα, SAPK/JNK, phospho-Thr183/Tyr185-SAPK/JNK, p65, phospho-Ser536-p65 (Cell Signaling Technology Inc. Beverly, […]., USA) diluted 1:1000 overnight at 4° C. Anti-rabbit IgG HRP-linked secondary antibody (Cell Signaling Technology) was diluted 1:1000 in blocking buffer and applied for 1 h at room temperature. Immunoreactive bands were detected by SuperSignal enhanced chemiluminescence (ECL) (Pierce, Rockford, Ill., USA) and exposed to Kodak X-Omat film.
IκK was immunoprecipitated from treated U87 cell extracts with anti-IKKβ antibody, (Santa Cruz Biotechnology, Santa Cruz, Calif., USA). […] Kinase activity was quantified using a Phosphoimager and Equal protein loading determined by immunoblotting with anti-IκKβ antibody (Upstate USA, Charlottesville, Va., USA). […]
(Immunoblotting shows a protein as a band on a membrane.)

A further test has as its system NF-κB. Nature of the test: NF-κB nuclear translocation and DNA binding (nuclear extracts, EMSA). It counts as cell-based, human. As to the method:
as §1, with “Confluent cultures of U87 cells were grown in complete medium and then left untreated or treated with 10 ng/mL TNFα for 20 m and 1 h+/−16 h pre-treatment with 100 μM TMZ (or 0.1% DMSO control vehicle). Cells” for “Cells”, “The nuclear suspension was then centrifuged at 14,500 rpm for 5 m at 4° C. and the supernatant containing the nuclear proteins was transferred to a clean tube.” left out, “B. […]” for “B.”
20 μg of whole U87 cell (or nuclear) lysate was subjected to sodium dodecyl sulfate (SDS)-polyacrylamide gel electrophoresis (PAGE). […] Immunoreactive bands were detected by SuperSignal enhanced chemiluminescence (ECL) (Pierce, Rockford, Ill., USA) and exposed to Kodak X-Omat film.

Consider `Cn1nnc2c(C(N)=O)ncn2c1=O` [TMZ, temozolomide], for which, in the test on IκBα (TMZ pretreatment, at 5 m), the “reduction of TNFα-induced phosphorylation of IκBα” value is 50%. In addition, in the test with IκBα (at 15 m, TNFα with or without TMZ pretreatment), the “degradation of IκBα” value is on record as “reduced TNFα-induced degradation”. Further, in the test on NF-κB, the “TNFα-induced NF-κB DNA binding” value is “does not directly affect”. Also, the “TNFα-induced NF-κB nuclear translocation” value in the test on NF-κB (glioma cells) is on record as “inhibiting NF-κB nuclear translocation”.

For the origin of these results see patent US20110091375A1, “USE OF THE COMBINATION COMPRISING TEMOZOLOMIDE AND TNF-ALPHA FOR TREATING GLIOBLASTOMA” (THE UNIVERSITY OF CHICAGO, priority 2004, published 2011).
